Measurements from ChEMBL document CHEMBL1201862, “PubChem BioAssay data set” (2004).
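Values below derive from 48-hour exposures of cells grown in 96-well plates, with endpoints linearly interpolated between the two concentrations bracketing the appropriate inhibition level. The concentration for 50% growth inhibition is given as GI50.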 Active and inactive are the calls of the source. Cut-off read from the data, not from the text of the source: active = GI50 up to about 1.1 µM and inactive = higher.

Legend:
Assay in all cases: NCI-60 cell line screen, 48 h
A549 = test system: A549
CAKI-1 = test system: CAKI-1
NCI-H522 = test system: NCI-H522
COLO 205 = test system: COLO 205
OVCAR-4 = test system: OVCAR-4
HOP-62 = test system: HOP-62
U-251 = test system: U-251
SK-OV-3 = test system: SK-OV-3
ACHN = test system: ACHN
RPMI-8226 = test system: RPMI-8226
SR = test system: SR
LOX IMVI = test system: LOX IMVI
SK-MEL-2 = test system: SK-MEL-2
SW-620 = test system: SW-620
KM12 = test system: KM12
NCI-H226 = test system: NCI-H226

Measured: GI50

Cc1ccc(NC(=O)CC(=O)n2nc(-c3ccccc3)c(/N=N\c3ccccc3[N+](=O)[O-])c2-c2ccccc2)cc1
inactive: A549 90.2 µM | CAKI-1 69.7 µM | NCI-H522 74.8 µM | COLO 205 > 100 µM | OVCAR-4 45.3 µM | HOP-62 82.2 µM | U-251 52.5 µM | SK-OV-3 80.2 µM | ACHN 89.3 µM | RPMI-8226 > 100 µM | SR > 100 µM | LOX IMVI 93.5 µM | SK-MEL-2 > 100 µM | SW-620 > 100 µM | KM12 > 100 µM

O=c1[nH]c(C2CCCCC2)nc2cc(Cl)ccc12
inactive: NCI-H226 > 100 µM | A549 > 100 µM | CAKI-1 > 100 µM | NCI-H522 > 100 µM | COLO 205 > 100 µM | OVCAR-4 67.3 µM | U-251 > 100 µM | SK-OV-3 > 100 µM | ACHN > 100 µM | RPMI-8226 > 100 µM | SR > 100 µM | SK-MEL-2 > 100 µM | SW-620 > 100 µM | KM12 > 100 µM

Cc1ccc2nc3cc(C)c(=O)cc-3sc2c1
inactive: NCI-H226 73.1 µM | A549 53.5 µM | CAKI-1 39.7 µM | NCI-H522 34.4 µM | COLO 205 94.8 µM | OVCAR-4 37.8 µM | HOP-62 > 100 µM | U-251 75 µM | SK-OV-3 > 100 µM | ACHN 57.7 µM | SR 17 µM | SK-MEL-2 > 100 µM | SW-620 > 100 µM | KM12 54.1 µM

COc1ccc(/C=C2\CCCC(C(NO)c3ccc(OC)cc3)C2=NO)cc1 (stereo not given)
inactive: A549 44.5 µM | CAKI-1 49 µM | NCI-H522 27.2 µM | COLO 205 44.3 µM | OVCAR-4 29.5 µM | HOP-62 98.9 µM | U-251 62.5 µM | SK-OV-3 > 100 µM | ACHN 41.6 µM | RPMI-8226 28.8 µM | SK-MEL-2 85.1 µM | SW-620 44.3 µM | KM12 89.5 µM

CC(=O)NC(CCCNC(=O)OCc1ccccc1)C(=O)O (stereo not given)
inactive: NCI-H226 > 100 µM | A549 > 100 µM | CAKI-1 > 100 µM | NCI-H522 > 100 µM | COLO 205 > 100 µM | OVCAR-4 36.1 µM | HOP-62 > 100 µM | U-251 > 100 µM | SK-OV-3 > 100 µM | ACHN > 100 µM | RPMI-8226 > 100 µM | LOX IMVI > 100 µM | SK-MEL-2 > 100 µM | SW-620 > 100 µM | KM12 > 100 µM

NN=C1/C(=C\c2ccccc2)CCC/C1=C/c1ccccc1
inactive: A549 33.3 µM | NCI-H522 15.4 µM | COLO 205 26.9 µM | OVCAR-4 49.4 µM | HOP-62 32.8 µM | U-251 34.9 µM | SK-OV-3 > 100 µM | ACHN 27.4 µM | RPMI-8226 16.4 µM | LOX IMVI 26.2 µM | SK-MEL-2 36.6 µM | SW-620 42.5 µM | KM12 34.1 µM

C=CCNC(=O)/C=C\C(=O)O
inactive: NCI-H226 > 100 µM | A549 > 100 µM | CAKI-1 > 100 µM | NCI-H522 > 100 µM | COLO 205 > 100 µM | OVCAR-4 > 100 µM | HOP-62 > 100 µM | U-251 > 100 µM | SK-OV-3 > 100 µM | ACHN > 100 µM | SR > 100 µM | LOX IMVI > 100 µM | SK-MEL-2 > 100 µM | SW-620 > 100 µM | KM12 > 100 µM

Cc1nc(C(N)=O)c(N)n1CCN1CCN(C(=O)CCCCCCCCCCNC2NC=Nc3[nH]cnc32)CC1 (stereo not given)
inactive: A549 51.2 µM | CAKI-1 > 10 µM | NCI-H522 > 10 µM | COLO 205 73.5 µM | HOP-62 91.6 µM | U-251 > 100 µM | SK-OV-3 > 100 µM | ACHN 29.4 µM | SR 13.6 µM | LOX IMVI 33.1 µM | SK-MEL-2 14.3 µM | SW-620 > 100 µM | KM12 41 µM

CC(=O)/C=C\C1CC2C=CC1C2 (stereo not given)
inactive: A549 67.1 µM | COLO 205 37.6 µM | OVCAR-4 27.1 µM | HOP-62 92.3 µM | U-251 45.4 µM | SK-OV-3 > 100 µM | ACHN 79.3 µM | RPMI-8226 23.9 µM | LOX IMVI 14.1 µM | SK-MEL-2 49.2 µM | SW-620 33.7 µM | KM12 32.3 µM

COP(=O)(OC)/C(=N\Nc1ccc([N+](=O)[O-])cc1)NCc1ccccc1
inactive: A549 31.3 µM | CAKI-1 38.6 µM | NCI-H522 13.4 µM | COLO 205 46.3 µM | OVCAR-4 24.5 µM | HOP-62 23.6 µM | U-251 23.4 µM | ACHN 28 µM | RPMI-8226 19.2 µM | SR 20.3 µM | SK-MEL-2 23 µM | SW-620 35.6 µM | KM12 24.5 µM

Cc1c(N2CCN(C)CC2)nc2ccc(Cl)cc2c1-c1ccccc1
inactive: A549 18.4 µM | CAKI-1 17.3 µM | NCI-H522 19.9 µM | COLO 205 16.1 µM | OVCAR-4 17.7 µM | HOP-62 18.2 µM | U-251 17.3 µM | SK-OV-3 47.4 µM | ACHN 22 µM | RPMI-8226 18.9 µM | SR 17.9 µM | LOX IMVI 14.7 µM | SK-MEL-2 17.3 µM | SW-620 16.8 µM | KM12 12.4 µM

COc1c(NC(C)=O)cc(C)cc1NC(C)=O
inactive: A549 > 100 µM | CAKI-1 > 100 µM | NCI-H522 > 100 µM | COLO 205 > 100 µM | OVCAR-4 > 100 µM | HOP-62 > 100 µM | U-251 > 100 µM | SK-OV-3 > 100 µM | ACHN > 100 µM | RPMI-8226 > 100 µM | SR > 100 µM | LOX IMVI > 100 µM | SK-MEL-2 > 100 µM | SW-620 > 100 µM | KM12 > 100 µM

CC/C(CC(=O)CCC(=O)Nc1ccc(C)c(C)c1)=N\NC(=O)C(N)=O
inactive: NCI-H226 > 100 µM | A549 > 100 µM | CAKI-1 > 100 µM | NCI-H522 > 100 µM | COLO 205 > 100 µM | OVCAR-4 > 100 µM | HOP-62 > 100 µM | U-251 > 100 µM | SK-OV-3 > 100 µM | ACHN > 100 µM | RPMI-8226 > 100 µM | SR > 100 µM | SW-620 > 100 µM

O=C(/C=C/c1c(O)ccc2ccccc12)c1ccc2ccccc2c1
inactive: NCI-H226 > 100 µM | A549 > 100 µM | CAKI-1 > 100 µM | NCI-H522 > 100 µM | COLO 205 > 100 µM | OVCAR-4 > 100 µM | HOP-62 > 100 µM | U-251 > 100 µM | SK-OV-3 > 100 µM | ACHN > 100 µM | RPMI-8226 > 100 µM | LOX IMVI > 100 µM | SK-MEL-2 > 100 µM | SW-620 > 100 µM | KM12 > 100 µM
